The target of test [1] is Zea mays EPSPS variant WT-FS-D (101S 107L 302S 338S) (Zea mays, UniProt O24566, A100S/A337S/E301S/P106L). Kind of test: EPSPS substrate saturation kinetics, WT-FS-D. The format is biochemical. How it is done: (§1) EPSPS activity was determined by quantifying the phosphate generated from the EPSPS reaction. Release of inorganic phosphate was coupled to reaction with 2-amino-6-mercapto-7-methylpurine ribonucleoside, catalyzed by purine-nucleoside phosphorylase (M R Webb, Proc. Natl. Acad. Sci. 89:4884-4887, 1992). The absorbance change that occurs was monitored at 360 nm, where the extinction is 11,200 M^−1 cm^−1, with a Spectramax plate reader (Molecular Devices). To determine kinetic parameters, the varied substrate was present at seven concentrations (the eighth being the blank, containing no substrate) ranging from 4 to 400 uM and the unvaried substrate present at saturation. […] Reactions were monitored with a Spectramax plate reader. […] KI was then calculated from the following form of the Michaelis-Menten equation for competitive inhibition: KI=KM[I]/(KM app−KM) KM approximates the dissociation constant of the enzyme-substrate complex while kcat is the rate of conversion of substrate to product when the substrate concentration is saturating. kcat/KM is a widely accepted parameter for catalytic efficiency when substrate concentration is low (˜KM). […] The parameter kcat/KM×KI is used to quantify both catalytic efficiency and insensitivity and thus the overall fitness of the enzyme. […]
Zea mays EPSPS variant WT-FS-D (101S 107L 302S 338S), sequence (O24566 entry or part of it A100S/P106L/E301S/A337S): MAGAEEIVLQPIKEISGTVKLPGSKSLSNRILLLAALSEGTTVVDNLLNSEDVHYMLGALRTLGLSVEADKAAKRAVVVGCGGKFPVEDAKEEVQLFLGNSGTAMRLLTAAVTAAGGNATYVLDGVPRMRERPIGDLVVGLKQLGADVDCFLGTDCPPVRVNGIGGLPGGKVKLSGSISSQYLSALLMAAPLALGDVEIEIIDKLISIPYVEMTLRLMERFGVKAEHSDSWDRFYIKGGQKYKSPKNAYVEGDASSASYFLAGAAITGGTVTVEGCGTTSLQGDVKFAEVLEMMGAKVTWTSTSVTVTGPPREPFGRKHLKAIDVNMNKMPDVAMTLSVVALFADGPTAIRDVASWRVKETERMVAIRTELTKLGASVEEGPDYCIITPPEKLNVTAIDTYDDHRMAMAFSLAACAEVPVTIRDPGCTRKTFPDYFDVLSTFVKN

Test [2] has as its target Sorghum halepense EPSPS with 868-H6 mutations, SEQ ID NO:12 (Sorghum halepense, UniProt H6T5X2, A1R/A3W/A415G/D401G/E301S/E390G/G101A/I207L/K83R/L97C/T278A/T360S/T440Q/V437R/V71Q). Kind of test: EPSPS substrate saturation kinetics, sorghum H6. The format is biochemical. How it is done:
as §1

The target in test [3] is Zea mays EPSPS variant 224R 249V (Zea mays, UniProt O24566, K223R/Y248V). Kind of test: EPSPS reaction rate with or without 10 uM glyphosate, 224R 249V. Note: 50 µM PEP and S3P. It counts as biochemical. Particulars: pH 7; read-out: Reaction rate with 10 μM glyph, % no glyph.
Zea mays EPSPS variant 224R 249V, sequence (O24566 entry or part of it K223R/Y248V): as the sequence (O24566 entry or part of it A100S/P106L/E301S/A337S) above, with S101A, L107P, K224R, Y249V, S302E, S338A counted along it
The test system of test [4] is Arabidopsis thaliana Col-0. Description: Glyphosate spray (Touchdown) tolerance of Arabidopsis transformed with maize EPSPS constructs. The format is in vivo.
For test [5], the system named is Glycine max (93Y21) cotyledon hairy roots. Kind of test: Hairy root growth of transformed soybean cotyledons on 25 uM glyphosate. It counts as cell-based.
Test [6] addresses T1, Zea mays EPSPS variant Zm-H6 (868-H6) with K246G (H6-K246G) (Zea mays, UniProt O24566, A1R/A3W/A415G/A71Q/D401G/E301S/E390G/G101A/I207L/K245G/K83R/L97C/T278A/T360S/T440Q/V437R).
T1 construct: 868-H6 plus K246G; E. coli BL21(DE3), Ni-NTA purified
T1 sequence (O24566 with tags, fused parts or gaps A1R/A3W/A71Q/K83R/L97C/G101A/I207L/K245G/T278A/E301S/T360S/E390G/D401G/A415G/V437R/T440Q): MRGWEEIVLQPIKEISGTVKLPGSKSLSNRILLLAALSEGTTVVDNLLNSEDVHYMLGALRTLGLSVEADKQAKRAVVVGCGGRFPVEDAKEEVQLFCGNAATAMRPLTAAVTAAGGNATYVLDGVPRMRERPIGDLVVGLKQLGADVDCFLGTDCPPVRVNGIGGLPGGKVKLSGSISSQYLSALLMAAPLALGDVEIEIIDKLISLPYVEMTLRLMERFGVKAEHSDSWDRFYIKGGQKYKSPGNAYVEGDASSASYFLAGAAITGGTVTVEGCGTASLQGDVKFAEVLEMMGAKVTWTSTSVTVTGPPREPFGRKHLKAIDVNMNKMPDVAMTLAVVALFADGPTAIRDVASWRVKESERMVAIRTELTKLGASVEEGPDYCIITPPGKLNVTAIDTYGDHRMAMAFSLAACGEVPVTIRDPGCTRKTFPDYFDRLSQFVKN
Description: Substrate saturation kinetic analysis with glyphosate, H6-K246G. It counts as biochemical.

The target of another test is Bacterial EPSPS (CP4) (Agrobacterium sp., UniProt Q9R4E4). Kind of test: Substrate saturation kinetic analysis with glyphosate, bacterial EPSPS (CP4).
Bacterial EPSPS (CP4), sequence (Q9R4E4 whole entry): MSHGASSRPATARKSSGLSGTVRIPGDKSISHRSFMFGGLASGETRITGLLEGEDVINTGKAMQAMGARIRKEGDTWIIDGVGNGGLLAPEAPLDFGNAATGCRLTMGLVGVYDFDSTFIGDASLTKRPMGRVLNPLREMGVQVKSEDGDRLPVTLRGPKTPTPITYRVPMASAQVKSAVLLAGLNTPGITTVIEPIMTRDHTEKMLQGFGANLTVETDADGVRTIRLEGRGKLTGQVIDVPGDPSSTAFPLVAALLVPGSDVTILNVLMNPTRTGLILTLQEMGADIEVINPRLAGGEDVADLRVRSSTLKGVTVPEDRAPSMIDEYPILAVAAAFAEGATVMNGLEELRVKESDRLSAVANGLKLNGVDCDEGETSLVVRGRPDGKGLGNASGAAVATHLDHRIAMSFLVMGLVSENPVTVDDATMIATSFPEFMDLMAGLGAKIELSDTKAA
Setting [7] is: PEP as substrate, glyphosate as inhibitor.

The record followed here is patent US11549123B2, “Plant EPSP synthases and methods of use” (PIONEER HI-BRED INTERNATIONAL, INC., priority 2015, dated 2023).

By Ki is commonly meant the equilibrium dissociation constant of an inhibitor or competing ligand from its target. A low value points to a stronger hold on the target.

Sorghum halepense EPSPS with 868-H6 mutations, SEQ ID NO:12, sequence (H6T5X2 entry or part of it with the stated changes): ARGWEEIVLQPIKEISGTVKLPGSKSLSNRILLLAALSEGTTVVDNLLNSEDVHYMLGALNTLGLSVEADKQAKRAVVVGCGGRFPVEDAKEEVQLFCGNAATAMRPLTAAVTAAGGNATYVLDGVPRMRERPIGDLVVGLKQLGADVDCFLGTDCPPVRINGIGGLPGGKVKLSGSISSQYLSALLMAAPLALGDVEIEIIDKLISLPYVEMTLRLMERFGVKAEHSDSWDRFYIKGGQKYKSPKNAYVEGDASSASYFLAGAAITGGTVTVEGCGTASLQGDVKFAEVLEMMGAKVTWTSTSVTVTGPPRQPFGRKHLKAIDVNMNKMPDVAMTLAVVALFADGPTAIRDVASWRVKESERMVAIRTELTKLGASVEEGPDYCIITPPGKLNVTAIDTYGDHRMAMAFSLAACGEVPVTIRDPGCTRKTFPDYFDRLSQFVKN
Description for Bacterial EPSPS (CP4): There are several practical considerations for accurately estimating (kcat/KM)*KI with the rapid method. […] If inhibition is too little, v0-vi will be small, and the error in the multiplier vi×v0/(v0-vi) will be large. […] High substrate concentration obscures sensitivity to the inhibitor and reduces stringency for capturing improvements in KM.

For the molecule `O=C(O)CNCP(=O)(O)O` [glyphosate, N-phosphonomethylglycine], the Ki in test [1] was 3.81 µM; in test [2], 783 µM; in test [6] it was 284 µM; at Bacterial EPSPS (CP4), 1410 µM. The “(kcat/KM)*KI” value in test [1] (setting [7]) is 346; in test [2] (setting [7]) it was 8080; in test [6] (substrate saturation, H6-K246G), 2490; on Bacterial EPSPS (CP4) (substrate saturation, Bacterial EPSPS / CP4) it was 108900. Moreover, in test [3], the activity at 10 µM is 3.09%. Besides, the “plant injury and growth inhibition compared to unsprayed controls” value in test [4] (plants transformed with UbiQ10 promoter and H6 variant) is “no visible injury or growth inhibition”. Besides, the growth after treatment result in test [4] (untransformed plants, 1.26 kg/Ha spray) is reported as “did not grow at all”. In test [4] (untransformed plants, 1.26 kg/Ha spray, by 10 days), the plant injury result is “chlorosis and imminent necrosis”. Moreover, the hairy root formation entry in test [5] (EPSPS driven by weaker promoters (UBQ3 and native), with glyphosate) is “Hairy roots were not formed”; in test [5] (UBQ10 promoter and H6, C1 and C2 variants, 25 uM glyphosate) it was “generated hairy roots”. The root growth result in test [5] (native EPSPS (UBQ10 promoter), 25 uM glyphosate) is “no root growth”.
